Paper PMC11944884, “Bioactive Secondary Metabolites of Two Chinese Edible Boletes, Phlebopus portentosus and Butyriboletus roseoflavus” (Molecules, 2025)
Where two headings read alike, the source gives them in different places.

How the values were obtained:
coxsackievirus B3 = test: Anti-coxsackievirus assay (CPE / MTT) in Vero cells; assay type: cell-based
Hela229 = test: Cytotoxicity CCK-8 assay, Hela229; assay type: cell-based; conditions: Homo sapiens, HeLa 229; for IC50: Hela229
SGC7901 = test: Cytotoxicity CCK-8 assay, SGC7901; assay type: cell-based; conditions: Homo sapiens, SGC-7901; for IC50: SGC7901
PC-3 = test: Cytotoxicity CCK-8 assay, PC-3; assay type: cell-based; conditions: Homo sapiens; for IC50: PC-3
BEL7402 = test: Cytotoxicity CCK-8 assay, BEL7402; assay type: cell-based; conditions: Homo sapiens, Bel-7402; for IC50: BEL7402
MCF-7/ADR = test: Cytotoxicity CCK-8 assay, MCF-7/ADR; assay type: cell-based; conditions: Homo sapiens, NCI/ADR-RES
[1] = system: Hela229, SGC7901, PC-3, BEL7402, and MCF-7/ADR; test: Cytotoxicity CCK-8 assay, small panel of human cancer cell lines (summary statements); assay type: cell-based
SH-SY5Y cells [2] = test: Neuroprotection against H2O2-induced neurotoxicity (MTT); assay type: cell-based; conditions: 500 μM compound, 80 μM H2O2, mean ± SEM
influenza virus A/H3N2 = test: microbe, parasite or virus in culture; assay type: cell-based, influenza virus A (H3N2 strain); conditions: MDCK cells
[3] = system: influenza virus B/Victoria strain; test: microbe, parasite or virus in culture; assay type: cell-based; conditions: MDCK cells
SH-SY5Y cells [4] = test: Neuroprotection against Aβ25−35-induced neurotoxicity (MTT); conditions: 10 μM compound, 10 μM Aβ25-35, mean ± SEM
Method: The cells, obtained from the American Type Culture Collection (ATCC, Manassas, VA, USA) at high passages, maintained at 37 °C in a humidified atmosphere containing 5% CO2. Cells were seeded into 96-well plates at a density of 2 × 10^5 cells/mL in MEM/F12 medium supplemented with 10% (v/v) fetal bovine serum. Experiments were carried out after 24 h of seeding. Test compounds and positive control (epigallocatechin-3-gallate, EGCG; NAC) were made to 10^−2 M stock solutions with DMSO and then diluted to corresponding concentrations with cell culture medium. Cells were incubated with test compounds or EGCG (10 μM, Sigma, St. Louis, MO, USA, purity > 98%)/NAC for 2 h, followed by exposure to 80 μM H2O2 or 10 μM Aβ25−35 for another 24 h without medium replacement. After treatment, 10 μL of MTT (5 mg/mL) was added to each well and incubated at 37 °C for 3 h. The cells were finally lysed with 100% DMSO, and the absorbance of MTT formazan was measured at 490 nm using a microplate reader.

[5] = 48 h, read-out: Cell proliferation inhibition (%)

Which “antiviral effect against coxsackievirus B3” value (coxsackievirus B3) does the source give for `CC(C)[C@@H](C)/C=C/[C@@H](C)[C@H]1CC[C@H]2C3=C(CC[C@]12C)[C@@]1(C)CC[C@H](O)C[C@@]12O[C@H]2C3=O` [Compound 29, (22E,24R)-5α,6α-epoxy-3β-hydroxy-ergosta-8,22-dien-7-one] here?
The value was “moderate antiviral effect”.

And the increased cell survival (coxsackievirus B3; 100 μg/mL, CVB-infected Vero cells)?
Its increased cell survival is 35.4%.

What about the “cytopathic morphology of Vero cells infected with coxsackievirus B3” value (coxsackievirus B3; 100 μg/mL, microscope) of the same compound?
The value was “reversed the cytopathic morphology”.

For `CC(C)[C@@H](C)/C=C/[C@@H](C)[C@H]1CC[C@H]2C3=CC(=O)O[C@@]3(O)CC[C@]12C` [Compound 33, demethylincisterol A3], which IC50 (Hela229) is on record?
The IC50 was 24.4 µM.

What about the inhibition at 6.25 µM (Hela229; Hela229, 6.25 μM, 48 h, read-out: Cell proliferation inhibition (%)) of the same compound?
The inhibition at 6.25 µM was -4.8%.

And the inhibition at 12.5 µM (Hela229; Hela229, 12.5 μM, 48 h, read-out: Cell proliferation inhibition (%))?
The inhibition at 12.5 µM was 5.8%.

And the inhibition at 25 µM (Hela229; Hela229, 25 μM, 48 h, read-out: Cell proliferation inhibition (%))?
The inhibition at 25 µM was 52.3%.

And the inhibition at 50 µM (Hela229; Hela229, 50 μM, 48 h, read-out: Cell proliferation inhibition (%))?
Its inhibition at 50 µM is 96.2%.

What about the inhibition at 100 µM (Hela229; Hela229, 100 μM, 48 h, read-out: Cell proliferation inhibition (%)) of the same compound?
The inhibition at 100 µM was 96.7%.

And the IC50 (SGC7901)?
Its IC50 is 26.7 µM.

And the inhibition at 6.25 µM (SGC7901; SGC7901, 6.25 μM, 48 h, read-out: Cell proliferation inhibition (%))?
The inhibition at 6.25 µM was 8.3%.

What about the inhibition at 12.5 µM (SGC7901; SGC7901, 12.5 μM, 48 h, read-out: Cell proliferation inhibition (%)) of the same compound?
Its inhibition at 12.5 µM is 16.7%.

What about the inhibition at 25 µM (SGC7901; SGC7901, 25 μM, 48 h, read-out: Cell proliferation inhibition (%)) of the same compound?
Its inhibition at 25 µM is 39.1%.

And the inhibition at 50 µM (SGC7901; SGC7901, 50 μM, 48 h, read-out: Cell proliferation inhibition (%))?
Its inhibition at 50 µM is 93.5%.

What about the inhibition at 100 µM (SGC7901; SGC7901, 100 μM, 48 h, read-out: Cell proliferation inhibition (%)) of the same compound?
Its inhibition at 100 µM is 94.7%.

And the IC50 (PC-3)?
The IC50 was 28.4 µM.

And the inhibition at 6.25 µM (PC-3; PC-3, 6.25 μM, 48 h, read-out: Cell proliferation inhibition (%))?
The inhibition at 6.25 µM was 12.4%.

What about the inhibition at 12.5 µM (PC-3; PC-3, 12.5 μM, 48 h, read-out: Cell proliferation inhibition (%)) of the same compound?
The inhibition at 12.5 µM was 21.6%.

What about the inhibition at 25 µM (PC-3; PC-3, 25 μM, 48 h, read-out: Cell proliferation inhibition (%)) of the same compound?
The inhibition at 25 µM was 47.3%.

What about the inhibition at 50 µM (PC-3; PC-3, 50 μM, 48 h, read-out: Cell proliferation inhibition (%)) of the same compound?
Its inhibition at 50 µM is 67.7%.

What about the inhibition at 100 µM (PC-3; PC-3, 100 μM, 48 h, read-out: Cell proliferation inhibition (%)) of the same compound?
The inhibition at 100 µM was 85.9%.

And the IC50 (BEL7402)?
Its IC50 is 27.7 µM.

And the inhibition at 6.25 µM (BEL7402; BEL7402, 6.25 μM, 48 h, read-out: Cell proliferation inhibition (%))?
Its inhibition at 6.25 µM is 10%.

And the inhibition at 12.5 µM (BEL7402; BEL7402, 12.5 μM, 48 h, read-out: Cell proliferation inhibition (%))?
The inhibition at 12.5 µM was 15.3%.

What about the inhibition at 25 µM (BEL7402; BEL7402, 25 μM, 48 h, read-out: Cell proliferation inhibition (%)) of the same compound?
Its inhibition at 25 µM is 49.4%.

And the inhibition at 50 µM (BEL7402; BEL7402, 50 μM, 48 h, read-out: Cell proliferation inhibition (%))?
Its inhibition at 50 µM is 75.3%.

And the inhibition at 100 µM (BEL7402; BEL7402, 100 μM, 48 h, read-out: Cell proliferation inhibition (%))?
Its inhibition at 100 µM is 82.8%.

And the IC50 (MCF-7/ADR)?
The IC50 was over 50 µM.

What about the inhibition at 6.25 µM (MCF-7/ADR; [5]) of the same compound?
The inhibition at 6.25 µM was 5.5%.

And the inhibition at 12.5 µM (MCF-7/ADR; [5])?
The inhibition at 12.5 µM was 5.1%.

What about the inhibition at 25 µM (MCF-7/ADR; 25 μM, 48 h, read-out: Cell proliferation inhibition (%)) of the same compound?
Its inhibition at 25 µM is 27.1%.

What about the inhibition at 50 µM (MCF-7/ADR; [5]) of the same compound?
The inhibition at 50 µM was 42.6%.

What about the inhibition at 100 µM (MCF-7/ADR; [5]) of the same compound?
The inhibition at 100 µM was 81.6%.

What about the IC50 ([1]; Hela229, SGC7901, PC-3, and BEL7402 cells, read-out: IC50s) of the same compound?
Its IC50 is 20 to 30 µM.

`COc1cccc2c1C(=O)c1c(O)c3c(c(O)c1C2=O)C[C@@](O)(C(=O)CO)C[C@@H]3O[C@H]1C[C@H](N)[C@H](O)[C@H](C)O1` [Doxorubicin, reference compound] was tested. Which IC50 (Hela229) did it give?
Its IC50 is 0.75 µM.

What about the IC50 (SGC7901) of the same compound?
Its IC50 is 0.8 µM.

And the IC50 (PC-3)?
Its IC50 is 1.78 µM.

What about the IC50 (BEL7402) of the same compound?
Its IC50 is 1.59 µM.

And the IC50 (MCF-7/ADR)?
Its IC50 is 35.2 µM.

What about the inhibition at 6.25 µM (MCF-7/ADR; [5]) of the same compound?
Its inhibition at 6.25 µM is 46.5%.

What about the inhibition at 12.5 µM (MCF-7/ADR; [5]) of the same compound?
Its inhibition at 12.5 µM is 44.2%.

And the inhibition at 50 µM (MCF-7/ADR; [5])?
The inhibition at 50 µM was 52.7%.

And the inhibition at 100 µM (MCF-7/ADR; [5])?
The inhibition at 100 µM was 52.8%.

And the IC50 ([1]; over the panel Hela229, SGC7901, PC-3, BEL7402, MCF-7/ADR, read-out: IC50)?
Its IC50 is 0.75 to 35.2 µM.

Which “Cell viability (% of control group)” value (SH-SY5Y cells [2]) does the source give for `CC(=O)N[C@@H](CS)C(=O)O` [NAC, N-acetylcysteine, reference compound] here?
Its value is 81.05%.

With `NC(=O)c1ncn([C@@H]2O[C@H](CO)[C@@H](O)[C@H]2O)n1` [Ribavirin, reference compound] as the compound, how does the inhibition at 3.13 µM (influenza virus A/H3N2; Influenza A virus, A/H3N2 strain, 3.13 μM, read-out: CPE inhibition) read?
The inhibition at 3.13 µM was 3.3%.

And the inhibition at 6.25 µM (influenza virus A/H3N2; Influenza A virus, A/H3N2 strain, 6.25 μM, read-out: CPE inhibition)?
The inhibition at 6.25 µM was 0%.

And the inhibition at 12.5 µM (influenza virus A/H3N2; Influenza A virus, A/H3N2 strain, 12.5 μM, read-out: CPE inhibition)?
Its inhibition at 12.5 µM is 10%.

What about the inhibition at 25 µM (influenza virus A/H3N2; Influenza A virus, A/H3N2 strain, 25 μM, read-out: CPE inhibition) of the same compound?
The inhibition at 25 µM was 50.5%.

And the inhibition at 50 µM (influenza virus A/H3N2; Influenza A virus, A/H3N2 strain, 50 μM, read-out: CPE inhibition)?
Its inhibition at 50 µM is 75%.

And the inhibition at 100 µM (influenza virus A/H3N2; Influenza A virus, A/H3N2 strain, 100 μM, read-out: CPE inhibition)?
Its inhibition at 100 µM is 100%.

And the IC50 (influenza virus A/H3N2; Influenza A virus, A/H3N2 strain, Table S5, read-out: IC50)?
Its IC50 is 28.3 µM.

And the EC50 (influenza virus A/H3N2; influenza virus A (H3N2 strain), read-out: EC50)?
Its EC50 is 28.3 µM.

And the inhibition at 3.13 µM ([3]; B/Victoria strain, 3.13 μM, read-out: CPE inhibition)?
Its inhibition at 3.13 µM is 0%.

And the inhibition at 6.25 µM ([3]; B/Victoria strain, 6.25 μM, read-out: CPE inhibition)?
The inhibition at 6.25 µM was 0%.

What about the inhibition at 12.5 µM ([3]; B/Victoria strain, 12.5 μM, read-out: CPE inhibition) of the same compound?
The inhibition at 12.5 µM was 25%.

And the inhibition at 25 µM ([3]; B/Victoria strain, 25 μM, read-out: CPE inhibition)?
Its inhibition at 25 µM is 62.5%.

What about the inhibition at 50 µM ([3]; B/Victoria strain, 50 μM, read-out: CPE inhibition) of the same compound?
Its inhibition at 50 µM is 75%.

What about the inhibition at 100 µM ([3]; B/Victoria strain, 100 μM, read-out: CPE inhibition) of the same compound?
The inhibition at 100 µM was 100%.

What about the IC50 ([3]; B/Victoria strain, Table S5, read-out: IC50) of the same compound?
The IC50 was 20.6 µM.

And the EC50 ([3]; influenza virus B (Victoria strain), read-out: EC50)?
Its EC50 is 20.6 µM.

For “epigallocatechin-3-gallate [EGCG, reference compound]”, which “Cell viability (% of control group)” value (SH-SY5Y cells [4]) is on record?
The value was 104.80%.
